In patent US9410142B2, “Dendrimer-based excipients for the attenuation of protein aggregation” (Massachusetts Institute of Technology, priority 2010, dated 2016):

Columns and labels:
[1] = biological target: T1, α-chymotrypsinogen A (aCgn) (Bos taurus, UniProt P00766); test: aCgn aggregation (monomer loss) at 52.5° C. by size exclusion HPLC; assay type: physicochemical, Bovine; settings: for relative rate constant for aCgn monomer loss: additive concentration near 0.2 M; for aCgn t95/t95, 0 (Shelf-Life Extension Factor): isotonic concentrations, 20 mM sodium citrate pH 5, 52.5° C., time for 5% loss of protein vs no additive
Method: The aggregation of aCgn was accelerated by incubating samples at an elevated temperature. […] In addition to all aggregation experiments being conducted at that temperature, all samples contained 10 mg/mL aCgn, held at pH 5.0 using a 20 mM sodium citrate buffer. 50 μL aliquots of each protein-cosolute mixture were placed in 0.2 mL polymerase chain reaction (PCR) tubes and then incubated in a Bio-Rad Mycycler thermal cycler with a timer initiated when the thermal cycler reached the desired temperature. Each series contained 12 samples and up to 8 different mixtures were tested at the same time during any given experiment. Samples were removed periodically and immediately placed in an ice bath to quench the aggregation reaction. The length of each experiment was planned so that the extent of reaction was such that at least 20% of the protein aggregated, making changes in the rate of aggregation pronounced. After at least five minutes in the ice bath, the samples were briefly spun in a minicentrifuge to remove precipitated aggregates and then transferred to autosampler vials.
All aCgn samples were first treated with phenylmethylsulfonyl fluoride to inhibit residual amounts of active enzyme and, after dialysis, solutions were frozen, rather than lyophilized, in 0.3 mL aliquots and used within 6 months. […] Solutions for the aggregation study were prepared by first preparing a solution of the cosolute of interest in a 20 mM sodium citrate pH 5 buffer at a concentration double that of interest (adjusting the pH to 5 if needed with the appropriate acid or an 8 M sodium hydroxide solution), then mixing 0.3 mL of this solution with 0.3 mL of a thawed aCgn solution. This solution was then divided into twelve aliquots, each 50 μL in volume, and incubated at an elevated temperature, as described below.
15 μL, of each aCgn sample were injected into an Agilent 1200 series HPLC, equipped with a Zorbax GF-250 (4.6×250 mm, 4 micron) size exclusion column and a UV-Vis detector, during a sequence. The HPLC mobile phase contained 25 mM citric acid monohydrate, 25 mM sodium acetate, and 200 mM sodium chloride with the pH adjusted to 4.0 using sodium hydroxide. The flow rate was set at 1 mL/min and samples were monitored at 280 nm.
Peak area at each time point was compared to the peak area for an unstressed sample to create a monomer loss profile normalized with respect to the initial concentration. Each profile was compared to a profile for a sample containing no cosolute to determine the change in aggregation rate upon addition of the cosolute. For a control, each aggregation experimental setup had one protein solution that contained no cosolute to verify that the baseline aggregation rate remained constant amongst all experiments.
The most notable consequence of perturbing a protein's environment is the enhancement or inhibition of protein aggregation. Deyoung L R et al. (1993) Accounts Chem Res 26:614-620; Fink A L (1998) Fold Des 3:R9-R23. The guanidinium-modified dendrimers were added to model protein solutions and incubated at an elevated temperature to determine how they influence the rate of this degradation pathway. […] At low dendrimer concentrations (0.05 M), the rate of monomer loss in the presence of the surface-modified dendrimer is slower than when compared to the reference solution. However, this aggregation rate reduction is insignificant when compared to the rate reduction induced by a high concentration of other commonly used additives such as arginine hydrochloride (ArgHCl), which is also depicted in the figure. Furthermore, as the concentration of the surface-modified dendrimer is increased, the aggregation rate reduction decreases until ultimately, the rate of aggregation is increased. At a concentration of 0.2 M, the surface-modified dendrimer induced rapid aggregation, causing a 50% loss in about 10 minutes as opposed to 30 minutes for the solution containing no cosolute. […]

[2] = biological target: T1, α-chymotrypsinogen A (aCgn); test: Preferential interaction with aCgn by vapor pressure osmometry (VPO); assay type: physicochemical, Bovine; settings: for Γ23/[3] preferential interaction with aCgn: 50 mg/mL aCgn, 20 mM sodium citrate pH 5, maximum dendrimer 0.2 mol/L; for Γexp preferential interaction coefficient of aCgn: 0.17-[…] dendrimer salt, VPO
Method: Osmolality measurements were carried out according to the previously described procedure. For improved accuracy, all samples were prepared gravimetrically using a Mettler Toledo balance with a precision of 0.1 mg. Partial molar volume values of the
Stock solutions of both BSA and lysozyme and stock solutions of the cosolutes were each prepared in a 40 mM sodium phosphate buffer, pH 6.0 (aCgn measurements were conducted in 20 mM sodium citrate buffer, pH 3.5 or pH 5.0). Stock solutions of the cosolutes were used so that a series of samples could be easily produced with varying solute concentrations by dilution with water and buffer. The protein stock solutions were further purified by placing the solutions under dialysis for 48 hours at room temperature against two changes of buffer (1 L each). […] To determine the concentration, samples of each stock solution were diluted gravimetrically with water to a final optical density of about 1.0 and the concentration determined spectrophotometrically with a PerkinElmer Lambda 35 UV/Vis spectrometer. It should be noted that the protein stock solutions were stored at 4° C. and used within one week of their preparation.
[formula] A Wescor Vapro® vapor pressure osmometer (model 5520) was used for all osmometry measurements. The instrument was calibrated using 0.1, 0.29, and 1 mol/kg osmolality standards provided by Wescor. Due to slight drifts in the calibration points, the instrument was recalibrated after every four measurements and the thermocouple was cleaned daily using concentrated ammonium hydroxide followed by a rinse with HPLC grade water. […] The data sets for each cosolute included at least 16 individually made solutions (both for the sets with and without the protein). Each sample contained approximately 80 μL of solution (40 μL of diluted cosolute stock solution and 40 μL of the protein stock solution). A minimum of three measurements on each solution were made. If the standard deviation for a particular solution was greater than 2 mmol/kg, more measurements were taken or another sample was prepared. For a given solute, data representing the dependence of osmolality on solute molality were fitted by a quadratic equation, with all fitting parameters floated. Data were weighted by the standard deviation of the individual osmolality measurements for the same solution using the nonlinear fitting program Igor Pro.
To gain further insight into how the modified dendrimer salts inhibit protein-protein interactions, preferential interaction coefficient (Γ23) values at various concentrations were determined, both experimentally via vapor pressure osmometry (VPO) measurements and computationally via MD simulations. The experimental results for the interaction between modified generation 0 PAMAM dendrimers and aCgn are expressed in Table 2, which summarizes the polynomial fit and uncertainty of the experimental data. Theoretical preferential interaction coefficient values were computed from the MD simulation using the procedure outlined in our previous work. Baynes B M and Trout B L (2003) J Phys Chem B 107:14058-14067; Shukla D et al. (2009) J Phys Chem B 113:12546-12554.

[3] = Partial molar volume from density measurements of dendrimer only solutions; assay type: physicochemical

Structure (SMILES) | aCgn aggregation suppression compared with other salt forms / generations (FIG. 5, 6, 8) ([1]; 10 mg/mL aCgn, pH 5, 52.5° C.) | relative rate constant for aCgn monomer loss ([1]; 10 mg/mL aCgn, pH 5, 52.5° C.) | aCgn t95/t95, 0 (Shelf-Life Extension Factor) [1] | Γ23/[3] preferential interaction with aCgn [2] [mol/mol] | Γexp preferential interaction coefficient of aCgn [2] | V0 partial molar volume at infinite dilution [3] [L/mol]
N=C(N)NCCNC(=O)CCN(CCC(=O)NCCNC(=N)N)CCN(CCC(=O)NCCNC(=N)N)CCC(=O)NCCNC(=N)N.O=S(=O)(O)O.O=S(=O)(O)O.O=S(=O)(O)O [Gdm(SO4)1/2] | nearly identical ability for inhibiting aggregation as the H2PO4 salt form | approximately 0.02 | 26.9 | −17.0 ± 4.4 | −3.1 | 0.5665
N=C(N)NCCNC(=O)CCN(CCC(=O)NCCNC(=N)N)CCN(CCC(=O)NCCNC(=N)N)CCC(=O)NCCNC(=N)N.O=P(O)(O)O.O=P(O)(O)O.O=P(O)(O)O.O=P(O)(O)O.O=P(O)(O)O.O=P(O)(O)O [Gdm(H2PO4)] |  | approximately 0.02 | 18.9 | −15.8 ± 5.0 | −2.9 | 0.7254
